Measurements reported in paper PMC7087839 (Chemistry of Natural Compounds, 2018).

Columns and labels:
Type in all cases: cell-based
[1] = test system: Polio virus (strain Type 3, WM-3)
[2] = test system: SARS corona virus (strain Urbani)
[3] = test system: Rift Valley fever virus (strain MP-12)
[4] = test system: Tacaribe virus (strain TRVL-11573)

Row | Structure (SMILES) | antiviral activity against Polio virus (in words) [1] | activity against Sars corona virus (in words) [2] | activity against Rift valley fever virus (in words) [3] | activity against Takaribe virus (in words) [4]
1 | C[C@]12CC[C@H](OC(=O)Cc3ccccc3)C[C@@H]1CC[C@@H]1[C@@H]2CC[C@]2(C)C(=NNC(=O)c3cccnc3)CC[C@@H]12 [Compound 5, 3 β-Phenylacetoxy-5α-androstan-17-one Nicotinoylhydrazone] | moderate | weakly active | weakly active | weak activity
2 | CC(=NNc1ccc([N+](=O)[O-])cc1)C1=CC[C@H]2[C@@H]3CC[C@H]4C[C@@H](O)CC[C@]4(C)[C@H]3CC[C@]12C [Compound 12, 5′-preg-16-en-3β-ol-20-one p-nitrophenylhydrazone] | moderate |  | weakly active | 
3 | C[C@]12CC[C@H](OC(=O)Cc3ccccc3)C[C@@H]1CC[C@@H]1[C@@H]2CC[C@]2(C)C(=NNC(=O)c3cccc([N+](=O)[O-])c3)CC[C@@H]12 [Compound 4, 3 β -Phenylacetoxy-5α-androstan-17-one m-nitrobenzoylhydrazone] | high | weakly active |  | 
